Experimental data reported in patent US6855490B2, “Method for attaching biological molecules to a glass surface” (Medical Discovery Partners LLC, priority 1999, dated 2005).
Primed or numbered codes have the meaning given here. FITC′ = fluorescein group attached to the epsilon side chain of lysine

What was measured:
1D5 monoclonal antibody [1] = test: Peptide ELISA of synthetic ER peptides; assay type: binding, mouse; settings: compared among ER peptides 3, 4 and 6
From the text: (§1) Three synthetic peptides (designated as ER peptide 3, ER peptide 4, and ER peptide 6), that are representative of above consensus phage sequence, were synthesized (by SynPep Labs, Dublin, Calif. and Bachem Labs, King of Prussia, Pa.) and tested for specificity/affinity to 1D5 monoclonal antibody.

1D5 monoclonal antibody [2] = test: Fluorescence polarization assay of synthetic ER peptides; parameters: species or system mouse; settings: binding to 1D5 monoclonal antibody, FITC-labelled peptide
Protocol: Large quantities of each of the selected phage are grown and nucleic acid extracted for sequence analysis. Based on the nucleotide sequence coding for the inserted ten-mer peptide, corresponding peptides are synthesized. Numerous commercial vendors provide peptide synthesis capabilities. The binding affinity of each of the selected peptide sequences for their antibodies is determined using Scatchard analysis. The percentage of antibodies binding to the peptide can be ascertained using fluorescence polarization analysis, provided that the peptide is fluorescently labeled. The specificity of binding for each peptide antigen mimic is tested using irrelevant, isotype-matched antibodies.
as §1

Kd (1D5 monoclonal antibody [2]): ~1 nM
Substance: Ac-DFQCPYVECVVNAPGGK(FITC)GK-CONH2 (Ac-DFQCPYVECVVNAPGGK(FITC′)GK-NH2; cysteine pairing not given here) [ER peptide 3]
Peptide ELISA signal (1D5 monoclonal antibody [1]): highest signal
